Assay results taken from patent US8802597B2, “Herbicidal pyrimidines” (E I du Pont de Nemours and Company, priority 2003, dated 2014).

Tests used:
Format in all cases: in vivo
[1] = tested on: barnyardgrass (Echinochloa crus-galli); assay: Test A pre/postemergence
Outline: (§1)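 Pre/post greenhouse screen; loam/sand soil; solvent + surfactant formulation; pre = directed soil spray at planting, post = 1–2 leaf plants, 2–10 cm; ~10 d; visual 0–100 rating vs untreated.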

[2] = tested on: crabgrass (Digitaria sanguinalis); assay: Test A pre/postemergence
Outline: as §1

[3] = tested on: giant foxtail (Setaria faberi); assay: Test A pre/postemergence
Outline: as §1

[4] = tested on: morningglory (Ipomoea spp.); assay: Test A pre/postemergence
Outline: as §1

[5] = tested on: redroot pigweed (Amaranthus retroflexus); assay: Test A pre/postemergence
Outline: as §1

[6] = tested on: velvetleaf (Abutilon theophrasti); assay: Test A pre/postemergence
Outline: as §1

[7] = tested on: barnyardgrass (Echinochloa crus-galli); assay: Test E flooded paddy water application; conditions: Flood, 21 days, scale 0 to 100 (0 no effect, 100 complete control)
Outline: (§2)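 Greenhouse pots of Tama silt loam with weeds and rice at 2.0–2.5-leaf stage, flooded to 3 cm; compounds applied directly into paddy water, depth maintained. Visual rating versus untreated controls after 21 days, 0 (no effect) to 100 (complete control); 29.5/26.7 °C, 16-h photoperiod.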

[8] = tested on: bearded (brdd.) sprangletop (Leptochloa fusca ssp. fascicularis); assay: Test E flooded paddy water application; conditions: Flood, 21 days, scale 0 to 100 (0 no effect, 100 complete control)
Outline: as §2

[9] = tested on: ducksalad (Heteranthera limosa); assay: Test E flooded paddy water application; conditions: Flood, 21 days, scale 0 to 100 (0 no effect, 100 complete control)
Outline: as §2

[10] = tested on: early watergrass (Echinochloa oryzoides); assay: Test E flooded paddy water application; conditions: Flood, 21 days, scale 0 to 100 (0 no effect, 100 complete control)
Outline: as §2

[11] = tested on: junglerice (Echinochloa colona); assay: Test E flooded paddy water application; conditions: Flood, 21 days, scale 0 to 100 (0 no effect, 100 complete control)
Outline: as §2

[12] = tested on: late watergrass (Echinochloa oryzicola); assay: Test E flooded paddy water application; conditions: Flood, 21 days, scale 0 to 100 (0 no effect, 100 complete control)
Outline: as §2

[13] = tested on: purple redstem (Ammannia coccinea); assay: Test E flooded paddy water application; conditions: Flood, 21 days, scale 0 to 100 (0 no effect, 100 complete control)
Outline: as §2

[14] = tested on: rice flatsedge (Cyperus iria); assay: Test E flooded paddy water application; conditions: Flood, 21 days, scale 0 to 100 (0 no effect, 100 complete control)
Outline: as §2

[15] = tested on: smallflower umbrella sedge (Cyperus difformis); assay: Test E flooded paddy water application; conditions: Flood, 21 days, scale 0 to 100 (0 no effect, 100 complete control)
Outline: as §2

[16] = tested on: transplanted rice seedlings (Oryza sativa cv. ‘Japonica-M202’); assay: Test E flooded paddy water application; conditions: Flood, 21 days, scale 0 to 100 (0 no effect, 100 complete control)
Outline: as §2

[17] = tested on: water seeded rice seedlings (Oryza sativa cv. ‘Japonica-M202’); assay: Test E flooded paddy water application; conditions: Flood, 21 days, scale 0 to 100 (0 no effect, 100 complete control)
Outline: as §2

[18] = Postemergence, 125 g ai/ha, 0 to 100 scale (0 no effect, 100 complete control)
[19] = Postemergence, 500 g ai/ha, 0 to 100 scale (0 no effect, 100 complete control)
[20] = Preemergence, 125 g ai/ha, 0 to 100 scale where 0 is no effect and 100 is complete control, approximately ten days
[21] = Preemergence, 500 g ai/ha, 0 to 100 scale where 0 is no effect and 100 is complete control, approximately ten days

CCOC(=O)c1nc(-c2ccc(Cl)c(Cl)c2)nc(N)c1Cl [Compound 73]
20: Watergrass, Late plant response rating ([12]; 250 g ai/ha)
65: Plant response rating, Morningglory [4, 19]
100: Barnyardgrass plant response rating ([7]; 250 g ai/ha) | Ducksalad plant response rating ([9]; 32 g ai/ha) | Ducksalad plant response rating ([9]; 64 g ai/ha) | Ducksalad plant response rating ([9]; 125 g ai/ha) | Ducksalad plant response rating ([9]; 250 g ai/ha) | Redstem plant response rating ([13]; 125 g ai/ha) | Redstem plant response rating ([13]; 250 g ai/ha)
0: Plant response rating, Barnyardgrass [1, 18] | Plant response rating, Foxtail, Giant [3, 20] | Plant response rating, Morningglory [4, 20] | Plant response rating, Morningglory [4, 21] | Barnyardgrass plant response rating ([7]; 64 g ai/ha) | Plant response rating, Barnyardgrass ([7]; 16 g ai/ha) | Sprangletop, Brdd. plant response rating ([8]; 32 g ai/ha) | Sprangletop, Brdd. plant response rating ([8]; 64 g ai/ha) | Plant response rating, Sprangletop, Brdd. ([8]; 16 g ai/ha) | Watergrass, Early plant response rating ([10]; 32 g ai/ha) | Watergrass, Early plant response rating ([10]; 64 g ai/ha) | Watergrass, Early plant response rating ([10]; 125 g ai/ha) | Watergrass, Early plant response rating ([10]; 250 g ai/ha) | Plant response rating, Watergrass, Early ([10]; 16 g ai/ha) | Junglerice plant response rating ([11]; 32 g ai/ha) | Junglerice plant response rating ([11]; 64 g ai/ha) | Junglerice plant response rating ([11]; 125 g ai/ha) | Junglerice plant response rating ([11]; 250 g ai/ha) | Plant response rating, Junglerice ([11]; 16 g ai/ha) | Watergrass, Late plant response rating ([12]; 32 g ai/ha) | Watergrass, Late plant response rating ([12]; 64 g ai/ha) | Watergrass, Late plant response rating ([12]; 125 g ai/ha) | Plant response rating, Watergrass, Late ([12]; 16 g ai/ha) | Redstem plant response rating ([13]; 32 g ai/ha) | Plant response rating, Redstem ([13]; 16 g ai/ha) | Flatsedge, Rice plant response rating ([14]; 32 g ai/ha) | Flatsedge, Rice plant response rating ([14]; 64 g ai/ha) | Plant response rating, Flatsedge, Rice ([14]; 16 g ai/ha) | Sedge, Umbrella plant response rating ([15]; 32 g ai/ha) | Sedge, Umbrella plant response rating ([15]; 64 g ai/ha) | Plant response rating, Sedge, Umbrella ([15]; 16 g ai/ha) | Rice, Transplanted plant response rating ([16]; 32 g ai/ha) | Rice, Transplanted plant response rating ([16]; 64 g ai/ha) | Rice, Transplanted plant response rating ([16]; 125 g ai/ha) | Rice, Transplanted plant response rating ([16]; 250 g ai/ha) | Plant response rating, Rice, Transplanted ([16]; 16 g ai/ha) | Rice, Water Seeded plant response rating ([17]; 32 g ai/ha) | Rice, Water Seeded plant response rating ([17]; 64 g ai/ha) | Rice, Water Seeded plant response rating ([17]; 125 g ai/ha) | Rice, Water Seeded plant response rating ([17]; 250 g ai/ha) | Plant response rating, Rice, Water Seeded ([17]; 16 g ai/ha)
75: Plant response rating, Pigweed [5, 18] | Plant response rating, Velvetleaf [6, 19] | Plant response rating, Ducksalad ([9]; 16 g ai/ha)
90: Barnyardgrass plant response rating ([7]; 125 g ai/ha) | Redstem plant response rating ([13]; 64 g ai/ha)
85: Sedge, Umbrella plant response rating ([15]; 250 g ai/ha)
40: Plant response rating, Velvetleaf [6, 21]
30: Plant response rating, Barnyardgrass [1, 21]
50: Plant response rating, Morningglory [4, 18] | Sprangletop, Brdd. plant response rating ([8]; 125 g ai/ha)
70: Plant response rating, Velvetleaf [6, 18] | Sprangletop, Brdd. plant response rating ([8]; 250 g ai/ha)
5: Plant response rating, Barnyardgrass [1, 19] | Plant response rating, Barnyardgrass [1, 20] | Plant response rating, Crabgrass [2, 20]
60: Plant response rating, Pigweed [5, 21]
35: Plant response rating, Crabgrass [2, 19] | Plant response rating, Crabgrass [2, 21] | Plant response rating, Velvetleaf [6, 20] | Sedge, Umbrella plant response rating ([15]; 125 g ai/ha)
15: Plant response rating, Crabgrass [2, 18] | Plant response rating, Foxtail, Giant [3, 18] | Plant response rating, Foxtail, Giant [3, 21] | Plant response rating, Pigweed [5, 20]
80: Plant response rating, Pigweed [5, 19]
45: Plant response rating, Foxtail, Giant [3, 19] | Flatsedge, Rice plant response rating ([14]; 250 g ai/ha)
